Data as given in patent US9192791B2, “Topical composition containing theanine derivatives for use on skin” (AMOREPACIFIC CORPORATION, priority 2011, dated 2015).

Test system: Human neonatal epidermal keratinocytes (HEK)
Test: Evaluation of calcium influx in human neonatal epidermal keratinocytes (fluo 3-AM, confocal microscope)
Format: cell-based
Conditions: theanine 2.5 mM, theanine derivative 0.5 mM, 5 minutes, then fluo 3-AM 15 minutes, FIG. 4
Method: Stabilized human neonatal epidermal keratinocytes (HEK, Lonza, NHEK-Neo-Neonatal Normal Human Epidermal Keratinocytes, Pooled) are dispensed in a confocal dish at a density of 2×10^4 cells per well and treated with theanine (2.5 mM) and the theanine derivative (0.5 mM) for 5 minutes and then with […] fluo 3-AM for 15 minutes. The fluo 3 decomposed in the cells and combined with calcium is observed with a confocal microscope (Nikon, Japan) to measure the difference of fluorescence and evaluate the migration of calcium in the cells.

CCNC(=O)CC[C@H](N)C(=O)O [theanine]
migration of calcium in the cells: definitely different behaviors from each other
